This is an account of results in patent US7402606B2, “Derivatives of 1-(oxoaminoacetyl) pentylcarbamate as cathepsin K inhibitors for the treatment of bone loss” (SmithKline Beecham Corporation, priority 2002, dated 2008).

What all share (format): biochemical
For one assay, the target named is human cathepsin H (Homo sapiens, UniProt P09668). Briefly: Cathepsin H inhibition assay, enzyme from human liver tissue, L-Arg-β-naphthalamide. As to conditions: Table 2, human cathepsin H; read-out: h Cat H IC50. The protocol: (§1) All assays for cathepsin K were carried out with human and rat recombinant enzyme. Assays for cathepsins S ? V were also carried out with human recombinant enzyme. Assays for human cathepsins B, H, and L were carried out with enzyme, purchased from Athens Research and Technology, Inc., prepared from human liver tissue. Standard assay conditions for the determination of kinetic constants used a fluorogenic peptide substrate, typically (5S,8S)-13-amino-5-benzyl-13-imino-3-methylene-N-(4-methyl-2-oxo-2H-chromen-7-yl)-6-oxo-1-phenyl-2-oxa-4,7,12triazatridecane-8-carboxamide (Cbz-Phe-Arg-AMC), and were determined in 100 mM sodium acetate at pH 5.5 containing 10 mM dithiothreitol and 120 mM sodium chloride. […]
(§2) All assays contained 10% dimethyl sulfoxide. […] Product fluorescence (excitation at 360 nm; emission at 440 nm, (except cathepsin H which used excitation at 340 nm; emission at 420 nm)) was monitored with a PerSeptive Biosystems Cytofluor II fluorescence plate reader. […]
(§3) Potential inhibitors were evaluated using the progress curve method. […] For those compounds whose progress curves were linear, the enzymatic activity (RATE) was plotted against the concentration of test compound, including inhibitor concentration of zero ([I]=0), and the IC50 determined from a fit of equation 1 to the data, RATE=Vmax/(1+([I]/IC50)) (1) where Vmax is the best fit estimate of the maximal enzymatic activity. […]

A further assay addresses human cathepsin L (Homo sapiens, UniProt P07711). Briefly: Cathepsin L inhibition assay, enzyme from human liver tissue, Cbz-Phe-Arg-AMC. As to conditions: Table 2, human cathepsin L; read-out: h Cat L IC50. The method, then:
as §1, §2, §3

The next assay deals with human cathepsin V (Homo sapiens, UniProt O60911). Briefly: Cathepsin V inhibition assay, human recombinant enzyme, Cbz-Phe-Arg-AMC. As to conditions: Table 2, human cathepsin V; read-out: h Cat V IC50. The protocol:
as §1, §2, §3

For a further assay, the target named is T1, rat cathepsin K (Rattus norvegicus, UniProt O35186).
T1 construct: The proform of cathepsin K was converted to mature cathepsin K by brief exposure to pH 4; made in house; host or cells: baculovirus; Trichoplusia ni High Five cells (virus raised in Sf-9)
T1 sequence (O35186 115-329): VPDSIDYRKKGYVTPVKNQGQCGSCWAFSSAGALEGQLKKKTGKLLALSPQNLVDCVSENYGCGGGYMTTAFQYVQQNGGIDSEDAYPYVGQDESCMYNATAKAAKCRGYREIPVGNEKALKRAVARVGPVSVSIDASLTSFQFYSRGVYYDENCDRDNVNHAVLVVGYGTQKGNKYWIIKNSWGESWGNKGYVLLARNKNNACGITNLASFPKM
The experiment in a line: Cathepsin K inhibition assay, rat recombinant enzyme, fluorogenic substrate Cbz-Phe-Arg-AMC. As to conditions: Table 2, rat cathepsin K; read-out: r Cat K IC50. The method, then: as §1, §2
Protein Purification: Media (human and rat) were filtered through a Whatman 3 filter, and then loaded onto a 25 mL. […] The column was washed until the absorbance reached the baseline value, and then the protein was eluted with a linear gradient from 0-2 M sodium chloride in the equilibration buffer. Column fractions were analyzed by SDS-PAGE, N-terminal sequencing, and mass spectrometry. […]

A further assay deals with human cathepsin B (Homo sapiens, UniProt P07858). The experiment in a line: Cathepsin B inhibition assay, enzyme from human liver tissue, Cbz-Phe-Arg-AMC. As to conditions: Table 2, human cathepsin B; read-out: h Cat B IC50. The protocol: as §1, §2, §3
In the next assay the target is human cathepsin S (Homo sapiens, UniProt P25774). The experiment in a line: Cathepsin S inhibition assay, human recombinant enzyme, Cbz-Val-Val-Arg-AMC. To be noted: Table 2, human cathepsin S; read-out: h Cat S IC50. The protocol:
as §1, §2, §3

Chain of human cathepsin V (O60911 114-334): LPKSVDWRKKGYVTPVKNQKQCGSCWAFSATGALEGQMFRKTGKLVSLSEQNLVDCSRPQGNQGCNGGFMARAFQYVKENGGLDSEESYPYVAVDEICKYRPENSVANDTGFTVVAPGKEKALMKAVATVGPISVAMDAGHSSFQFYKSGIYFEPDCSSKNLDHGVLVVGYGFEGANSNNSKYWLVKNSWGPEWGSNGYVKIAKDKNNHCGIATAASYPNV
Chain of human cathepsin H (P09668 116-335 limits assumed, other chains not shown): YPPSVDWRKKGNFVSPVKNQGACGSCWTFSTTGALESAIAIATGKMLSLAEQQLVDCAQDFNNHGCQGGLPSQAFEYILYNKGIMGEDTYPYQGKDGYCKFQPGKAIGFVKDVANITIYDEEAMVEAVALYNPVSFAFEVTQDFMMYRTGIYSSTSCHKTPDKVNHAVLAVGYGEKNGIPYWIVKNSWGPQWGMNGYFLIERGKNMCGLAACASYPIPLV
Chain of human cathepsin S (P25774 115-331): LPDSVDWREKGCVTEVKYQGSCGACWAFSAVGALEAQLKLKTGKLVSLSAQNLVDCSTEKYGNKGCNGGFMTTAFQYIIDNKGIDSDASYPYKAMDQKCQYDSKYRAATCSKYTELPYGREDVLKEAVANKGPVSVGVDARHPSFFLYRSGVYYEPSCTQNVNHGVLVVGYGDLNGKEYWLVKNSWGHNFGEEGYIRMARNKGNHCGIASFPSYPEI
Chain of human cathepsin L (P07711 114-333): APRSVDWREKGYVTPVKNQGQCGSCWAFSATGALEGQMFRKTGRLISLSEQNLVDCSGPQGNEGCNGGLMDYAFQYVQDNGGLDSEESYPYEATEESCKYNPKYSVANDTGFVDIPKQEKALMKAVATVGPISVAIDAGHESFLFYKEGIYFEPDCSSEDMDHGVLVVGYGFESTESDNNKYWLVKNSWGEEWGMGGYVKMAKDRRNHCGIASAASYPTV

In the case of `CCCC[C@H](NC(=O)O[C@@H]1CN(c2nnc(C(F)(F)F)s2)CC1(C)C)C(=O)C(=O)Nc1ccn[nH]1` [Example 82, (3S)-4,4-Dimethyl-1-[5-(trifluoromethyl)-1,3,4-thiadiazol-2-yl]pyrrolidinyl-(1S)-1-[oxo(1H-pyrazol-5-ylamino)acetyl]pentylcarbamate], the IC50 (in general, the concentration at which inhibition is half-maximal) on human cathepsin H fell in the range of 100 to 1000 nM; at human cathepsin L it was 100 to 1000 nM; at human cathepsin V, 10 to 100 nM; on rat cathepsin K, 10 to 100 nM; at human cathepsin B, 100 to 1000 nM; on human cathepsin S it was 10 to 100 nM.

As for `CCCC[C@H](NC(=O)O[C@@H]1CN(C(=O)Nc2ccc(C(F)(F)F)cc2)CC1(C)C)C(=O)C(=O)Nc1ccn[nH]1` [Example 71, (3S)-4,4-dimethyl-1-{[4-(trifluoromethyl)anilino]carbonyl}pyrrolidinyl (1S)-1-[oxo(1H-pyrazol-5-ylamino)acetyl]pentylcarbamate], the half-maximal inhibitory concentration (IC50) is 100 to 1000 nM on human cathepsin H; 100 to 1000 nM on human cathepsin L; 10 to 100 nM on human cathepsin V; 10 to 100 nM at rat cathepsin K; 100 to 1000 nM at human cathepsin B; 1 to 10 nM at human cathepsin S.
